Laboratory results from US12473296B2, “Perk inhibiting compounds” (HiberCell, Inc., priority 2019, dated 2025).

Assays:
PERK = PERK (Homo sapiens (Human), UniProt Q9NZJ5); experiment: PERK cellular assay (TR-FRET, HEK293-EGFP-eIF2α cells, tunicamycin-induced ER stress); type: cell-based; conditions: tunicamycin 2 hours, read-out: Cellular IC50 (μM) (EIF2a)
How it was run: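 After 2 h tunicamycin ([…]) stress following 30 min compound pretreatment at 37 °C, lysed HEK293-EGFP-eIF2α cells were read by TR-FRET. IC50 derived by 4-parameter logistic fitting of percent inhibition, DMSO-normalized, from 10-point 3-fold dilutions.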

[1] = target: EIF2AK3 (PERK) catalytic domain (amino acids 536-1116) (Homo sapiens (Human), UniProt Q9NZJ5); experiment: PERK in vitro activity assay (isolated), TR-FRET kinase assay; conditions: isolated PERK enzyme, 1.5 μM ATP, GFP-eIF2a substrate; read-out: Biochemical IC50
How it was run: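 Human PERK catalytic domain (aa 536-1116) with 100-200 nM GFP-eIF2a in 50 mM HEPES pH 7.5, 10 mM MgCl2, 1.0 mM EGTA, 0.01% Brij-35; enzyme-started reaction run 45 min at room temperature. Stopped with 10 mM EDTA, 2 nM Tb-anti-phospho-eIF2a added for 90 min; IC50 from TR-FRET ratio by 4-parameter logistic fit.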

EIF2AK3 (PERK) catalytic domain (amino acids 536-1116), sequence (Q9NZJ5 536-1116): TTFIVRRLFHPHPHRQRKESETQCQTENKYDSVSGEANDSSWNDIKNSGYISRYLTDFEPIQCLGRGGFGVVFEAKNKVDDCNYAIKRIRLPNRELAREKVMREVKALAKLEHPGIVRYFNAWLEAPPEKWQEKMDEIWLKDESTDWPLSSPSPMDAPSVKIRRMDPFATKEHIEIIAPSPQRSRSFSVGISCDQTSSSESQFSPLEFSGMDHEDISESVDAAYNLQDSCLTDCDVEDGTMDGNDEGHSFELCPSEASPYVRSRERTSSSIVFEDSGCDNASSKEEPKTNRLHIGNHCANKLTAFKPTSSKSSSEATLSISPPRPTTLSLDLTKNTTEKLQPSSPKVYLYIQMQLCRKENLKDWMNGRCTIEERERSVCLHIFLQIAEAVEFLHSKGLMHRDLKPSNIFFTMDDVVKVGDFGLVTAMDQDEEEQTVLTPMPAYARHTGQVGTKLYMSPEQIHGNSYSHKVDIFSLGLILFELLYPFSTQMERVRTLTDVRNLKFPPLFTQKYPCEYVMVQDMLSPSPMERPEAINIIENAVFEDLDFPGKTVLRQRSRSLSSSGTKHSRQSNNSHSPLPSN
PERK, sequence (Q9NZJ5 30-1116): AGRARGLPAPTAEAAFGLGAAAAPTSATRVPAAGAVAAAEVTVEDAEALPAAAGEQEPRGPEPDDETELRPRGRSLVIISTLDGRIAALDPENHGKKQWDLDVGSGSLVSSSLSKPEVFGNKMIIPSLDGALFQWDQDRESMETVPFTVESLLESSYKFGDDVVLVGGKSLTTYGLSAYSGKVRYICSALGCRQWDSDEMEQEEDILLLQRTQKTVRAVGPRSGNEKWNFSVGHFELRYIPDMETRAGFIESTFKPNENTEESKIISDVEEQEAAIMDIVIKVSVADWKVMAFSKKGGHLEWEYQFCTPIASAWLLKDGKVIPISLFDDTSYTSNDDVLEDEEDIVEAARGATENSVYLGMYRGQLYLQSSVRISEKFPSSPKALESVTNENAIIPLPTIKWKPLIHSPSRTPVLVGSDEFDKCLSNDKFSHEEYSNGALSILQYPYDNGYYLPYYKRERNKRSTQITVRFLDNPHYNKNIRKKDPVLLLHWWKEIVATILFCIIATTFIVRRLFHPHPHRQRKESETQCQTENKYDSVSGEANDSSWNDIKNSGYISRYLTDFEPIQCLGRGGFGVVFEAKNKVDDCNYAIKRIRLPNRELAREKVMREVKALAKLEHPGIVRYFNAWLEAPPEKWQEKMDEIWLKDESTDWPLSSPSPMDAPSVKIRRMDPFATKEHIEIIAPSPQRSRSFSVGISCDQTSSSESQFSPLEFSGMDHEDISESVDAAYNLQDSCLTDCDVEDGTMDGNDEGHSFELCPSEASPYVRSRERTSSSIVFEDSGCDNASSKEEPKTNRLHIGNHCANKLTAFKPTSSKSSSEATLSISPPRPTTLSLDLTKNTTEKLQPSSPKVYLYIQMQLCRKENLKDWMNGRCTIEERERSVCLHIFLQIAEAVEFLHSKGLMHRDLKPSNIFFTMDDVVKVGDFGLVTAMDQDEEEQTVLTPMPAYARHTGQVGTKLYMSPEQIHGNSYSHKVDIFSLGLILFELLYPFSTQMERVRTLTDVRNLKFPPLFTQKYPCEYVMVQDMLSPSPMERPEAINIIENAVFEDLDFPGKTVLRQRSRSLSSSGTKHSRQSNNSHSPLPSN

Structure (SMILES) | IC50 (PERK) [µM] | IC50 [1] [µM]
Cc1cc(NC(=O)c2ccccc2)ccc1-c1cnc(N)c(C(=O)NC(C)C)c1 [Example 217, 2-amino-5-(4-benzamido-2-methylphenyl)-N-isopropylnicotinamide] | 0.501 to 1 | > 5
Cc1cc(NC(=O)C(O)c2cc(F)cc(F)c2)ccc1-c1cnc(N)c(C(=O)NCCO)c1 (centres unmarked) [Example 56, 2-amino-5-(4-(2-(3,5-difluorophenyl)-2-hydroxyacetamido)-2-methylphenyl)-N-(2-hydroxyethyl) nicotinamide] | 0.251 to 0.5 | 0.001 to 0.025
CCc1cc(NC(=O)C(O)c2cc(F)cc(F)c2)ccc1-c1cnc(N)c(C(=O)NC(C)C)c1 (single isomer, unassigned) [Example 38, 2-amino-5-(4-(2-(3,5-difluorophenyl)-2-hydroxyacetamido)-2-ethylphenyl)-N-isopropylnicotinamide] | 0.001 to 0.025 | 0.001 to 0.025
Cc1cc(NC(=O)C(O)c2cc(F)cc(F)c2)ccc1-c1cnc(N)c(C(=O)NC2COC2)c1 (centres unmarked) [Example 24, 2-amino-5-(4-(2-(3,5-difluorophenyl)-2-hydroxyacetamido)-2-methylphenyl)-N-(oxetan-3-yl)nicotinamide] | 0.051 to 0.1 | 0.001 to 0.025
Cc1nc(C(O)C(=O)Nc2ccc(-c3cnc(N)c(C(=O)NC(C)C)c3)c(C)c2)cs1 (centres unmarked) [Example 79, 2-amino-5-(4-(2-hydroxy-2-(2-methylthiazol-4-yl)acetamido)-2-methylphenyl)-N-isopropylnicotinamide] | > 5 | 1 to 2
COc1ccccc1CC(=O)Nc1ccc(-c2cnc(N)c(C(=O)NC(C)C)c2)c(C)c1 [Example 192, 2-amino-N-isopropyl-5-(4-(2-(2-methoxyphenyl)acetamido)-2-methylphenyl) nicotinamide] | 2 to 3 | 0.101 to 0.25
Cc1cc(NC(=O)C(O)c2cc(F)cc(F)c2)c(F)cc1-c1cnc(N)c(C(=O)NC(C)C)c1 (centres unmarked) [Example 125, 2-amino-5-(4-(2-(3,5-difluorophenyl)-2-hydroxyacetamido)-5-fluoro-2-methylphenyl)-N-isopropylnicotinamide] | 0.501 to 1 | 0.101 to 0.25
CCNC(=O)c1cc(-c2ccc(NC(=O)C(O)c3cc(F)cc(F)c3)cc2Cl)cnc1N (centres unmarked) [Example 82, 2-amino-5-(2-chloro-4-(2-(3,5-difluorophenyl)-2-hydroxyacetamido)phenyl)-N-ethylnicotinamide] | 0.026 to 0.05 | 0.001 to 0.025
CC(=O)N1CC(NC(=O)c2cc(-c3ccc(NC(=O)C(O)c4cc(F)cc(F)c4)cc3C)cnc2N)C1 (centres unmarked) [Example 31, N-(1-acetylazetidin-3-yl)-2-amino-5-(4-(2-(3,5-difluorophenyl)-2-hydroxyacetamido)-2-methylphenyl) nicotinamide] | 3 to 4 | 0.051 to 0.1
CC(=O)N1CC(NC(=O)c2cc(-c3ccc(NC(=O)C(O)c4cc(F)cc(F)c4)cc3C)cnc2N)C1 (centres unmarked) [Example 30, N-(1-acetylazetidin-3-yl)-2-amino-5-(4-(2-(3,5-difluorophenyl)-2-hydroxyacetamido)-2-methylphenyl) nicotinamide] | 0.501 to 1 | 0.001 to 0.025
Cc1cc(NC(=O)C(O)c2cc(F)cc(F)c2)ccc1-c1cncc(C(=O)NC(C)C)c1 (centres unmarked) [Example 178, 5-(4-(2-(3,5-difluorophenyl)-2-hydroxyacetamido)-2-methylphenyl)-N-isopropylnicotinamide] | 0.101 to 0.25 | 0.026 to 0.05
CCc1cc(NC(=O)C(O)c2cccc(C(F)(F)F)c2)ccc1-c1cnc(N)c(C(=O)NC(C)C)c1 (centres unmarked) [Example 110, 2-amino-5-(2-ethyl-4-(2-hydroxy-2-(3-(trifluoromethyl)phenyl)acetamido)phenyl)-N-isopropylnicotinamide] | 0.001 to 0.025 | 0.001 to 0.025
Cc1cc(NC(=O)Cc2ccc(C(F)(F)F)cc2)ccc1-c1cnc(N)c(C(=O)NC(C)C)c1 [Example 203, 2-amino-N-isopropyl-5-(2-methyl-4-(2-(4-(trifluoromethyl)phenyl)acetamido)phenyl) nicotinamide] | 1 to 2 | 2 to 3
Cc1cc(NC(=O)C(O)c2cc(F)cc(F)c2)ccc1-c1ccc(N)nc1 (centres unmarked) [Example 170, N-(4-(6-aminopyridin-3-yl)-3-methylphenyl)-2-(3,5-difluorophenyl)-2-hydroxyacetamide] | 2 to 3 | 0.051 to 0.1
Cc1nc(C(O)C(=O)Nc2ccc(-c3cnc(N)c(C(=O)NC(C)C)c3)c(C)c2)cs1 (centres unmarked) [Example 78, 2-amino-5-(4-(2-hydroxy-2-(2-methylthiazol-4-yl)acetamido)-2-methylphenyl)-N-isopropylnicotinamide] | > 5 | 1 to 2
Cc1cc(NC(=O)C(O)c2cc(F)cc(F)c2)ccc1-c1cnc(N)c(C(=O)NC(C)(C)C)c1 (single isomer, unassigned) [Example 16, 2-amino-N-(tert-butyl)-5-(4-(2-(3,5-difluorophenyl)-2-hydroxyacetamido)-2-methylphenyl) nicotinamide] | 0.101 to 0.25 | 0.026 to 0.05
CCc1cccc(C(O)C(=O)Nc2ccc(-c3cnc(N)c(C(=O)NC(C)C)c3)c(Cl)c2)c1 (centres unmarked) [Example 94, 2-amino-5-(2-chloro-4-(2-(3-ethylphenyl)-2-hydroxyacetamido)phenyl)-N-isopropylnicotinamide] | 0.001 to 0.025 | 0.001 to 0.025
Nc1ncc(-c2ccc(NC(=O)C(O)c3cc(F)cc(F)c3)cc2Cl)cc1C(=O)NC1CC1 (centres unmarked) [Example 85, 2-amino-5-(2-chloro-4-(2-(3,5-difluorophenyl)-2-hydroxyacetamido)phenyl)-N-cyclo-propylnicotinamide] | 0.051 to 0.1 | 0.001 to 0.025
CCc1cc(NC(=O)C(O)c2cc(F)cc(F)c2)ccc1-c1cnc(N)c(C(=O)NCC(F)(F)F)c1 (centres unmarked) [Example 101, 2-amino-5-(4-(2-(3,5-difluorophenyl)-2-hydroxyacetamido)-2-ethylphenyl)-N-(2,2,2-trifluoroethyl) nicotinamide] | 0.051 to 0.1 | 0.001 to 0.025
